Data as given in ChEMBL document CHEMBL5715952 (Oncotarget, 2015).

What was measured:
[1] = Inhibition of MEK/MAPK in bortezomib Resistant human RPMI-8226 cells assessed as reduction of cell growth incubated for 72 hrs by CellTiter 96 aqueous one solution cell proliferation assay; format: cell-based; conditions: Bortezomib-resistant RPMI-8226, 72 h
[2] = Inhibition of MEK/MAPK in human bortezomib-resistant ANBL6 cells assessed as reduction of cell growth incubated for 72 hrs by CellTiter 96 aqueous one solution cell proliferation assay; format: cell-based
[3] = Ratio of IC50 for inhibition of MEK/MAPK in human RPMI-8226 cells assessed as reduction of cell viability to IC50 for inhibition of MEK/MAPK in human RPMI-8226/BR resistant cells assessed as reduction of cell viability; conditions: condition multiple myeloma
[4] = Inhibition of MEK/MAPK in melphalan-resistant human RPMI-8226 cells assessed as reduction of cell growth incubated for 72 hrs by CellTiter 96 aqueous one solution cell proliferation assay; format: cell-based; conditions: Melphalan-resistant RPMI-8226 cell
[5] = Ratio of IC50 for inhibition of MEK/MAPK in human RPMI-8226 cells assessed as reduction of cell viability to IC50 for inhibition of MEK/MAPK in human melphalan-resistant RPMI-8226 cells assessed as reduction of cell viability; conditions: time 72 hrs; condition multiple myeloma
[6] = Inhibition of MEK/MAPK in human RPMI-8226 cells assessed as reduction of cell growth incubated for 72 hrs by CellTiter 96 aqueous one solution cell proliferation assay; format: cell-based; conditions: RPMI-8226, 72 h
[7] = Inhibition of MEK/MAPK in human U-266 cells assessed as reduction of cell growth incubated for 72 hrs by CellTiter 96 aqueous one solution cell proliferation assay; format: cell-based; conditions: U-266, 72 h
[8] = Inhibition of MEK/MAPK in human ANBL-6 cells assessed as reduction of cell growth incubated for 72 hrs by CellTiter 96 aqueous one solution cell proliferation assay; format: cell-based; conditions: ANBL-6, 72 h
[9] = Ratio of IC50 for inhibition of MEK/MAPK in human ANBL6 cells assessed as reduction of cell viability to IC50 for inhibition of MEK/MAPK in human ANBL6/BR resistant cells assessed as reduction of cell viability; conditions: condition multiple myeloma
[10] = Inhibition of MET/VEGFR/Tie2 in bortezomib Resistant human RPMI-8226 cells assessed as reduction of cell growth incubated for 72 hrs by CellTiter 96 aqueous one solution cell proliferation assay; format: cell-based; conditions: Bortezomib-resistant RPMI-8226, 72 h
[11] = Inhibition of MET/VEGFR/Tie2 in human ANBL-6 cells assessed as reduction of cell growth incubated for 72 hrs by CellTiter 96 aqueous one solution cell proliferation assay; format: cell-based; conditions: ANBL-6, 72 h
[12] = Ratio of IC50 for inhibition of MET/VEGFR/Tie2 in human RPMI-8226 cells assessed as reduction of cell viability to IC50 for inhibition of MET/VEGFR/Tie2 in human RPMI-8226/BR resistant cells assessed as reduction of cell viability; conditions: condition multiple myeloma
[13] = Inhibition of MET/VEGFR/Tie2 in Melphalan Resistant human RPMI-8226 cells assessed as reduction of cell growth incubated for 72 hrs by CellTiter 96 aqueous one solution cell proliferation assay; format: cell-based; conditions: Melphalan-resistant RPMI-8226 cell
[14] = Ratio of IC50 for inhibition of MET/VEGFR/Tie2 in human RPMI-8226 cells assessed as reduction of cell viability to IC50 for inhibition of MET/VEGFR/Tie2 in human melphalan-resistant RPMI-8226 cells assessed as reduction of cell viability; conditions: time 72 hrs; condition multiple myeloma
[15] = Inhibition of MET/VEGFR/Tie2 in human U-266 cells assessed as reduction of cell growth incubated for 72 hrs by CellTiter 96 aqueous one solution cell proliferation assay; format: cell-based; conditions: U-266, 72 h
[16] = Inhibition of MET/VEGFR/Tie2 in human bortezomib-resistant ANBL6 cells assessed as reduction of cell growth incubated for 72 hrs by CellTiter 96 aqueous one solution cell proliferation assay; format: cell-based
[17] = Ratio of IC50 for inhibition of MET/VEGFR/Tie2 in human ANBL6 cells assessed as reduction of cell viability to IC50 for inhibition of MET/VEGFR/Tie2 in human ANBL6/BR resistant cells assessed as reduction of cell viability; conditions: condition multiple myeloma
[18] = Inhibition of MET/VEGFR/Tie2 in human RPMI-8226 cells assessed as reduction of cell growth incubated for 72 hrs by CellTiter 96 aqueous one solution cell proliferation assay; format: cell-based; conditions: RPMI-8226, 72 h
[19] = Ratio of IC50 for inhibition of PI3K/mTOR in human RPMI-8226 cells assessed as reduction of cell viability to IC50 for inhibition of PI3K/mTOR in human melphalan-resistant RPMI-8226 cells assessed as reduction of cell viability; conditions: time 72 hrs; condition multiple myeloma
cells [20] = conditions: Homo sapiens, RPMI-8226, 72 h
cells [21] = conditions: Homo sapiens, Melphalan-resistant RPMI-8226 cell, 72 h
[22] = Ratio of IC50 for inhibition of PI3K/mTOR in human ANBL6 cells assessed as reduction of cell viability to IC50 for inhibition of PI3K/mTOR in human ANBL6/BR resistant cells assessed as reduction of cell viability; conditions: condition multiple myeloma
cells [23] = conditions: Homo sapiens, U-266, 72 h
cells [24] = conditions: Homo sapiens, Bortezomib-resistant ANBL6 cell, 72 h
cells [25] = conditions: Homo sapiens, Bortezomib-resistant RPMI-8226, 72 h
cells [26] = conditions: Homo sapiens, ANBL-6, 72 h
[27] = Ratio of IC50 for inhibition of PI3K/mTOR in human RPMI-8226 cells assessed as reduction of cell viability to IC50 for inhibition of PI3K/mTOR in human RPMI-8226/BR resistant cells assessed as reduction of cell viability; conditions: condition multiple myeloma
cells [28] = conditions: Homo sapiens, Melphalan-resistant RPMI-8226 cell, 72 h; remark: listed apart in the source
cells [29] = conditions: Homo sapiens, Bortezomib-resistant RPMI-8226, 72 h; remark: listed apart in the source
[30] = Ratio of IC50 for inhibition of BCR-ABL/KIT/LCK/EPHA/DDR in human ANBL6 cells assessed as reduction of cell viability to IC50 for inhibition of BCR-ABL/KIT/LCK/EPHA/DDR in human ANBL6/BR resistant cells assessed as reduction of cell viability; conditions: condition multiple myeloma
[31] = Ratio of IC50 for inhibition of BCR-ABL/KIT/LCK/EPHA/DDR in human RPMI-8226 cells assessed as reduction of cell viability to IC50 for inhibition of BCR-ABL/KIT/LCK/EPHA/DDR in human melphalan-resistant RPMI-8226 cells assessed as reduction of cell viability; conditions: time 72 hrs; condition multiple myeloma
cells [32] = conditions: Homo sapiens, U-266, 72 h; remark: listed apart in the source
cells [33] = conditions: Homo sapiens, Bortezomib-resistant ANBL6 cell, 72 h; remark: listed apart in the source
[34] = Ratio of IC50 for inhibition of BCR-ABL/KIT/LCK/EPHA/DDR in human RPMI-8226 cells assessed as reduction of cell viability to IC50 for inhibition of BCR-ABL/KIT/LCK/EPHA/DDR in human RPMI-8226/BR resistant cells assessed as reduction of cell viability; conditions: condition multiple myeloma
cells [35] = conditions: Homo sapiens, ANBL-6, 72 h; remark: listed apart in the source
cells [36] = conditions: Homo sapiens, RPMI-8226, 72 h; remark: listed apart in the source

## O=C(NOCC1CC1)c1ccc(F)c(F)c1Nc1ccc(I)cc1Cl [CI-1040]
[1]
  IC50: 7.59 µM
[2]
  IC50: 10 µM
[3]
  Ratio IC50: 0.27
[4]
  IC50: 4.9 µM
[5]
  Ratio IC50: 0.6
[6]
  IC50: 2040 nM
[7]
  IC50: 5.13 µM
[8]
  IC50: 8.13 µM
[9]
  Ratio IC50: 0.81

## Cn1cnc(-c2cc3nccc(Oc4ccc(NC(=S)NC(=O)Cc5ccccc5)cc4F)c3s2)c1
[10]
  IC50: 6.46 µM
[11]
  IC50: 10 µM
[12]
  Ratio IC50: 1.55
[13]
  IC50: 10 µM
[14]
  Ratio IC50: 0.9
[15]
  IC50: 10 µM
[16]
  IC50: 9.33 µM
[17]
  Ratio IC50: 1.07
[18]
  IC50: 8.91 µM

## Cn1c(=O)n(-c2ccc(C(C)(C)C#N)cc2)c2c3cc(-c4cnc5ccccc5c4)ccc3ncc21 [DACTOLISIB]
[19]
  Ratio IC50: 0.4
Cells [20]
  IC50: 17.2 nM
Cells [21]
  IC50: 92.2 nM
[22]
  Ratio IC50: 1.68
Cells [23]
  IC50: 56 nM
Cells [24]
  IC50: 48.9 nM
Cells [25]
  IC50: 38.2 nM
Cells [26]
  IC50: 82.3 nM
[27]
  Ratio IC50: 0.45

## Cc1cn(-c2cc(NC(=O)c3ccc(C)c(Nc4nccc(-c5cccnc5)n4)c3)cc(C(F)(F)F)c2)cn1 [NILOTINIB]
Cells [28]
  IC50: 10 µM
Cells [29]
  IC50: 10 µM
[30]
  Ratio IC50: 1
[31]
  Ratio IC50: 1
Cells [32]
  IC50: 10 µM
Cells [33]
  IC50: 10 µM
[34]
  Ratio IC50: 1
Cells [35]
  IC50: 10 µM
Cells [36]
  IC50: 9.83 µM
